Experimental findings from US5506354A, “Imidazolylpiperazinyl steroids” (The Upjohn Company, priority 1992, dated 1996) are described below.

In one assay the test system is angiogenesis. As to the kind of experiment: Chick embryo assay of Folkman (inhibition of angiogenesis / tumor growth). Format: in vivo. The note with it: 50 μg/10 μl in the presence of heparin. How it is done:
According to this procedure compounds which are considered to be "active" (i.e. antiangiogenic) give an avascular zone of 4 mm or greater in some embryos when tested at 50 μg/10 μl in the presence of 50 μg/10μ of heparin.

In a further assay the test system is interleukin-1. As to the kind of experiment: Inhibition of interleukin-1 induced T cell proliferation. Type of assay: cell-based. The note with it: for inhibition of interleukin 1 (activity in words): active = greater than 30% at 10^-6 M. The source says: The inhibition of interleukin-1 induced T cell proliferation assay, Proc. Nat. […] Since people with arthritis make excess interleukin 1, compounds which inhibit the activity of interleukin 1 are useful in the treatment of arthritis. According to this procedure compounds which inhibit the activity of interleukin 1 greater that 30% at 10^-6 M are considered to be "active".

The test system of a further assay is arachidonic acid. As to the kind of experiment: Arachidonic Acid Antagonism Assay (AAAA), LD50 of sodium arachidonate. Format: in vivo, Charles River male CF-1 mice. The note with it: test compound IV 15 min before sodium arachidonate; LD50 outside 95% confidence interval of control. How it is done:
Since these metabolites contribute to the pathological problems associated with stroke, spinal trauma and head injury, compounds which antagonize arachidonic acid are useful in treating stroke, spinal trauma and head injury.
While not necessary to determine arachidonic acid antagonism, the above assay has been modified as follows: Charles River male CF-1 mice weighing 18-22 g are treated IV with the test compound dissolved in 1.0% Tween-80 and 0.1% hydrochloric acid in distilled water, 0.2 ml total volume. Fifteen minutes later sodium arachidonate (90% pure) in physiological (normal) saline is injected into the tail vein. The LD50 is measured using the Spearman-Karber method with a log dose interval of 0.05 (N=6). Compounds which elevate the LD50 outside of the 95% confidence interval of the control LD50 are considered to be "active".

A further assay relates to MDA formation. As to the kind of experiment: Malonyldialdehyde (MDA) Formation Assay (rat brain synaptosomes). Format: biochemical. The note with it: 10 min at 37°, pH 7.0; active = 50% or more at 200 μM or less. How it is done: Since lipid peroxidation is involved in the pathophysiology of center nervous system trauma, compounds which inhibit MDA formation are useful in treating the conditions listed below.
While not necessary to determine MDA formation, the above assays have been modified as follows: rat brain synaptosomes are prepared as described in the Example about the conjugated diene assay, except that the final wash of the synaptosomes and final suspension are in physiological (normal) saline in which the pH has been adjusted to 7.0. The synaptosomes are incubated for 10 min at 37° in physiological (normal) saline pH 7.0 (total volume=100 ul) containing; 10 ul synaptosomal suspension, 10% DMSO plus or minus drug, 150 uM Fe^+++ and 50 uM Fe++. The incubation is started by the rapid addition of iron to the otherwise complete reaction. The iron solutions are prepared fresh as ferric chloride and ferrous ammonium sulfate in argon-purged water. Following the 10 min incubation, the reaction is stopped by the addition of 500 ul ice-cold 12% trichloroacetic acid prepared in 0.5N hydrochloric acid. Water (300 ul) is then added along with 100 ul of freshly prepared thiobarbituric acid (3.3% in 0.5N sodium hydroxide) and 10 ul of 5 mM desferrioxamine. The sample is then heated in a boiling water bath for 20 minutes. The samples are cooled and centrifuged for 15 minutes at 1500×g and the absorbence of the supernatant fraction is read at 532 nm. The % inhibition of MDA formation is calculated by dividing the absorbance of sample containing drug by the absorbence of samples incubated without drug. Reaction blanks are samples incubated in the absence of iron. A compound that inhibits MDA formation by 50% or more at a concentration of 200 μM or less is considered "active".

Where a name gives a salt, the structure may show the parent alone.

Consider `C[C@H]1C[C@@H]2[C@H]([C@@H](O)C[C@@]3(C)[C@H]2CC[C@]3(O)C(=O)CN2CCN(c3ccccn3)CC2)[C@@]2(C)C=CC(=O)C=C12` [Example 21, 11β,17α-dihydroxy-6α-methyl-21-[4-(2-pyridinyl)-1-piperazinyl]pregna-1,4-diene-3,20-dione], for which, in the assay with angiogenesis, the “% of Embryos with 4 mm or Greater Avascular Zone” value is 91% and the “inhibition of angiogenesis (activity in words)” value (“inhibition of angiogenesis” below) is recorded as “demonstrate inhibition of angiogenesis”. In the assay on interleukin-1, the “inhibition of interleukin 1 (activity in words)” value is recorded as “demonstrate inhibition of interleukin 1”. Moreover, in the assay with arachidonic acid, the “arachidonic acid antagonism (activity in words)” value (“arachidonic acid antagonism” below) was “demonstrate arachidonic acid antagonism”.

Turning to `CN(CCN(C)c1ccccn1)CC(=O)[C@@]1(O)CC[C@H]2[C@@H]3CCC4=CC(=O)CC[C@]4(C)C3=CC[C@@]21C` [Example 24, 17α-hydroxy-21-[methyl[2-(methyl-2-pyridinylamino)ethyl]-aminopregna-4,9(11)-diene-3,20-dione dihydrochloride], in the assay with angiogenesis, the “inhibition of angiogenesis” value is reported as “demonstrate inhibition of angiogenesis”. Moreover, the “arachidonic acid antagonism” value with arachidonic acid was “demonstrate arachidonic acid antagonism”. As to `COc1ccc(CCN(CC(=O)[C@@]2(O)CC[C@H]3[C@@H]4CCC5=CC(=O)CC[C@]5(C)C4=CC[C@@]32C)Cc2cc(OC)c(OC)c(OC)c2)cc1OC` [Example 37, 17α-hydroxy-21-[[2-(3,4-dimethoxy-phenyl)ethyl]-[3,4,5-trimethoxyphenyl)methyl]amino]pregna-4,9(11)diene-3,20-dione hydrochloride], in the assay with angiogenesis, the “inhibition of angiogenesis” value was “demonstrate inhibition of angiogenesis”. In addition, the “inhibition of interleukin 1 (activity in words)” value in the assay on interleukin-1 is recorded as “demonstrate inhibition of interleukin 1”. Consider `COc1ccccc1N1CCN(CC(=O)[C@@]2(O)CC[C@H]3[C@@H]4CCC5=CC(=O)CC[C@]5(C)[C@H]4CC[C@@]32C)CC1.Cl.Cl.O` [Example 41, 17α-hydroxy-21-[4-(2-methoxyphenyl)-1-piperazinyl]pregn-4-ene-3,20-dione dihydrochloride hydrate], for which, in the assay with angiogenesis, the “% of Embryos with 4 mm or Greater Avascular Zone” value is 80%. For the same compound, the “arachidonic acid antagonism” value with arachidonic acid is given as “demonstrate arachidonic acid antagonism”. With `CCN(CC)c1cc(N2CCN(CC(=O)[C@@]3(O)CC[C@H]4[C@@H]5CCC6=CC(=O)C=C[C@]6(C)C5=CC[C@@]43C)CC2)nc(N(CC)CC)n1.Cl.Cl.O` [Example 75, 21-[4-[2,6-bis(diethylamino)4-pyrimidinyl]-1-piperazinyl]-17α-hydroxypregna-1,4,9(11)-triene-3,20-dione dihydrochloride hydrate], in the assay with arachidonic acid, the “arachidonic acid antagonism” value is reported as “demonstrate arachidonic acid antagonism”. Still for that read-out and setting: the value for `C[C@]12CCC(=O)C=C1CC[C@@H]1C2=CC[C@@]2(C)[C@H]1CC[C@]2(O)C(=O)CN1CCOCC1` [Example 93, 17α-hydroxy-21-(4-morpholino)-pregna4,9(11)-diene-3,20-dione (E)-2-butanedioate (1:1) salt] was “demonstrate arachidonic acid antagonism”. Take `C[C@]12CC(=O)[C@H]3[C@@H](CCC4=CC(=O)CC[C@@]43C)[C@@H]1CC[C@@H]2C(=O)CN1CCN(c2cc(N3CCCC3)nc(N3CCCC3)n2)CC1.Cl.Cl` [Example 94, 21-[4-[2,6-bis(1-pyrrolidinyl)-4-pyrimidinyl]-1-piperazinyl]pregn-4-ene-3,11,20-trione dihydrochloride]: the “inhibition of interleukin 1 (activity in words)” value with interleukin-1 is given as “demonstrate inhibition of interleukin 1”. Consider `CCN(CC)c1ccc(N(C)C)c(N2CCN(CC(=O)[C@@]3(O)CC[C@H]4[C@@H]5CCC6=CC(=O)CC[C@]6(C)C5=CC[C@@]43C)CC2)n1.Cl.Cl` [Example 96, 21-[4-[6-(diethylamino)-3-(dimethylamino)-2-pyridinyl]-1-piperazinyl]-17α-hydroxypregna-4,9(11)-diene-3,20-dione dihydrochloride], for which the “inhibition of interleukin 1 (activity in words)” value with interleukin-1 is recorded as “demonstrate inhibition of interleukin 1”. Moreover, in the assay with interleukin-1 (interleukin 1, 10^-6 M), the “% Inhibition at 10^-6 M” value is on record as 77%. `C[C@]12CC[C@H]3[C@@H](CCC4=CC(=O)C=C[C@@]43C)[C@@H]1CC[C@@H]2C(=O)CN1CCN(c2cc(N3CCCC3)nc(N3CCCC3)n2)CC1.Cl.Cl` [Example 97, 21-[4-[2,6-di-(1-pyrrolidinyl)-4-pyrimidinyl]-1-piperazinyl]-pregna-1,4-diene-3,20-dione dihydrochloride]: in the assay on angiogenesis, the “inhibition of angiogenesis” value is “demonstrate inhibition of angiogenesis”. In the assay with interleukin-1, the “inhibition of interleukin 1 (activity in words)” value was “demonstrate inhibition of interleukin 1”. Turning to `CN1CCN(CC(=O)[C@@]2(O)CC[C@H]3[C@@H]4CCC5=CC(=O)CC[C@]5(C)C4=CC[C@@]32C)CC1` [Example 101, 17α-hydroxy-21-(4-methyl-1-piperazinyl)pregna-4,9(11)-diene-3,20-dione], the “inhibition of interleukin 1 (activity in words)” value in the assay on interleukin-1 was “demonstrate inhibition of interleukin 1”. For the compound `C[C@]12CCC(=O)C=C1CC[C@@H]1C2=CC[C@]2(C)[C@@H](CCN3CCN(c4cc(N5CCCC5)nc(N5CCCC5)n4)CC3)CC[C@@H]12.Cl` [Example 104, 21-[4-(2,6-Bis(1-pyrrolidinyl)-4-pyrimidinyl)-1-piperazinyl]pregna-4,9(11)-dien-3-one hydrochloride], in the assay on angiogenesis, the “inhibition of angiogenesis” value was “demonstrate inhibition of angiogenesis”. In the assay on MDA formation, the “inhibition of MDA formation (activity in words)” value (from here on “inhibition of MDA formation”) was “demonstrate such activity”.

With `CC(CN1CCN(c2cc(N3CCCC3)nc(N3CCCC3)n2)CC1)[C@H]1CC[C@H]2[C@@H]3CCC4=CC(=O)CC[C@]4(C)[C@H]3CC[C@]12C.Cl` (some centres unmarked) [Example 107, 20-Methyl-21-[4-(2,6-bis(1-pyrrolidinyl)-4-pyrimidinyl)-1-piperazinyl]pregna-4-ene-3-one hydrochloride], in the assay on MDA formation, the “inhibition of MDA formation” value was “demonstrate such activity”. Still for that read-out and setting: the value for `C[C@@]12C(=CC(=O)C[C@@H]1C#N)CC[C@@H]1C2=CC[C@]2(C)[C@@H](CCN3CCN(c4cc(N5CCCC5)nc(N5CCCC5)n4)CC3)CC[C@@H]12.Cl.Cl.Cl.O` [Example 110, 21-[4-(2,6-Bis(1-pyrrolidinyl)4-pyrimidinyl)-1-piperazinyl]-1α-cyanopregna-4,9(11)-dien-3-one-trihydrochloride, hydrate] was “demonstrate such activity”. Take `C[C@H]1C[C@H]2[C@@H]3C[C@H](F)C4=CC(=O)CC[C@]4(C)C3=CC[C@]2(C)[C@@]1(O)C(=O)CN1CCN(c2cc(N3CCCC3)nc(N3CCCC3)n2)CC1` [Example 118, 6αa-Fluoro-17α-hydroxy-16β-methyl-21-[4-[2,6-bis(1-pyrrolidinyl)-4-pyrimidinyl]-1-piperazinyl]-pregna-4,9(11)-diene-3,20-dione dihydrochloride]: the “inhibition of MDA formation” value with MDA formation is “demonstrate such activity”. On to `C[C@@H]1C[C@H]2[C@@H]3CCC4=CC(=O)C=C[C@]4(C)[C@H]3CC[C@]2(C)[C@H]1C(=O)CN1CCN(c2cc(N3CCCC3)nc(N3CCCC3)n2)CC1.Cl.Cl` [Example 121, 16α-Methyl-21-[4-[2,6-bis(1-pyrrolidinyl)-4-pyrimidinyl]-1-piperazinyl]-pregna-1,4-diene-3,20-dione dihydrochloride], for which the “inhibition of MDA formation” value with MDA formation is “demonstrate such activity”. Same read-out and setting: the value for `COc1ccc2c(c1)CC[C@@H]1[C@@H]2CC[C@@]2(C)[C@H]1CC[C@]2(O)C(=O)CN1CCN(c2cc(N3CCCC3)nc(N3CCCC3)n2)CC1` [Example 125, 3,17α-Dihydroxy-21-[4-[2,6-bis(1-pyrrolidinyl)-4-pyrimidinyl]-1-piperazinyl]-19-norpregna-1,3,5(10)-trien-20-one 3-methyl ether (E)-2-butenedioate 1:1 salt] was “demonstrate such activity”. As for `C[C@]12CC[C@@H]3c4ccc(O)cc4CC[C@H]3[C@@H]1CC[C@]2(O)C(=O)CN1CCN(c2cc(N3CCCC3)nc(N3CCCC3)n2)CC1` [Example 129, 3,17α-Dihydroxy-21-[4-[2,6-bis(1-pyrrolidinyl)-4-pyrimidinyl]-1-piperazinyl]-19-norpregna-1,3,5(10)-trien-20-one (E)-2-butenedioate 1:1 salt], the “inhibition of MDA formation” value in the assay on MDA formation is reported as “demonstrate such activity”.
